In the supplement of paper PMC10307832:

Compound: Cn1cnc2c(F)c(Nc3ccc(Br)cc3Cl)c(C(=O)NOCCO)cc21 [Selumetinib] + CC(C)C[C@H](NC(=O)[C@H](Cc1ccccc1)NC(=O)c1cnccn1)B(O)O [Bortezomib] (partner 0.002 µM)
Assay: relative viability (nuclei count vs DMSO), 5 days (fraction); higher = more cells survive
Conditions: first compound 0.6325 µM
How it was run: (§1)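 Lung cancer cell lines were seeded in 1536-well plates and dosed by pin tool the next day, with either a single drug or a fixed anchor-drug dose combined with five library-drug doses (not always all listed) spaced in √10 steps. Five days later, one step fixed the cells and stained their nuclei (final 0.05% Triton X-100, 1% formaldehyde, 1 ug/ml Hoechst), and nuclei were counted on 4× images. Relative viability is the nuclei count in treated wells divided by the count in vehicle wells, and each value is the median of duplicate plates.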

Cell Line | relative viability
HCC-78 | 0.425
NCI-H1299 | 0.977
NCI-H1792 | 0.677
NCI-H1703 | 0.434
NCI-H1563 | 0.786
ABC-1 | 0.291
NCI-H727 | 0.337

Compound: Cn1cnc2c(F)c(Nc3ccc(Br)cc3Cl)c(C(=O)NOCCO)cc21 [Selumetinib] + Cc1nc(Nc2ncc(C(=O)Nc3c(C)cccc3Cl)s2)cc(N2CCN(CCO)CC2)n1 [Dasatinib] (partner 0.075 µM)
Assay: as above
Conditions: first compound 0.02 µM
How it was run: as §1

Cell Line | relative viability
NCI-H522 | 1.96
NCI-H1623 | 0.465
PC-14 | 0.265
NCI-H1666 | 0.759
NCI-H1755 | 0.417
NCI-H2023 | 0.534
EPLC-272H | 0.294
LCLC-97TM1 | 0.866
PC-3 [JPC-3] | 0.974
LOU-NH91 | 0.547
NCI-H647 | 0.187
NCI-H23 | 0.808
EMC-BAC-2 | 0.352
NCI-H2126 | 0.484
NCI-H1734 | 0.506
NCI-H650 | 0.518
LK-2 | 0.281
NCI-H2228 | 0.428
NCI-H2342 | 0.362

Cell Line | relative viability
SK-MES-1 | 0.284
HARA | 0.28
COR-L23 | 0.462
COR-L 105 | 0.328
LC-2-ad | 0.724
LXF-289 | 0.223
ChaGo-K-1 | 0.587
NCI-H2170 | 0.533
NCI-H322M | 0.248
HCC-78 | 0.395
SW 900 | 0.709
NCI-H1792 | 0.787
NCI-H1395 | 0.408
NCI-H1563 | 0.514
NCI-H1793 | 0.393
NCI-H1944 | 0.186
ABC-1 | 0.512
NCI-H358 | 0.136
NCI-H727 | 0.308

Same assay, conditions: first compound 0.06325 µM

Cell Line | relative viability
NCI-H522 | 0.849
NCI-H1623 | 0.454
PC-14 | 0.26
NCI-H1666 | 0.831
NCI-H1755 | 0.388
NCI-H2023 | 0.484
EPLC-272H | 0.297
LCLC-97TM1 | 0.674
PC-3 [JPC-3] | 0.99
LOU-NH91 | 0.504
NCI-H647 | 0.2
NCI-H23 | 0.644
EMC-BAC-2 | 0.419
NCI-H2126 | 0.483
NCI-H1734 | 0.531
NCI-H650 | 0.578
LK-2 | 0.31
NCI-H2228 | 0.454
NCI-H2342 | 0.32

Cell Line | relative viability
SK-MES-1 | 0.271
HARA | 0.288
COR-L23 | 0.488
COR-L 105 | 0.239
LC-2-ad | 0.501
LXF-289 | 0.315
ChaGo-K-1 | 0.615
NCI-H2170 | 0.515
NCI-H322M | 0.237
HCC-78 | 0.344
SW 900 | 0.491
NCI-H1792 | 0.802
NCI-H1395 | 0.415
NCI-H1563 | 0.451
NCI-H1793 | 0.375
NCI-H1944 | 0.186
ABC-1 | 0.37
NCI-H358 | 0.111
NCI-H727 | 0.299

Same assay, conditions: first compound 0.2 µM

Cell Line | relative viability
NCI-H522 | 0.861
NCI-H1623 | 0.461
PC-14 | 0.256
NCI-H1666 | 0.837
NCI-H1755 | 0.407
NCI-H2023 | 0.562
EPLC-272H | 0.355
LCLC-97TM1 | 0.543
PC-3 [JPC-3] | 0.976
LOU-NH91 | 0.495
NCI-H647 | 0.167
NCI-H23 | 0.5
EMC-BAC-2 | 0.379
NCI-H2126 | 0.498
NCI-H1734 | 0.466
NCI-H650 | 0.65
LK-2 | 0.308
NCI-H2228 | 0.405
NCI-H2342 | 0.37

Cell Line | relative viability
SK-MES-1 | 0.235
HARA | 0.247
COR-L23 | 0.488
COR-L 105 | 0.224
LC-2-ad | 0.427
LXF-289 | 0.324
ChaGo-K-1 | 0.664
NCI-H2170 | 0.48
NCI-H322M | 0.24
HCC-78 | 0.347
SW 900 | 0.541
NCI-H1792 | 0.704
NCI-H1395 | 0.432
NCI-H1563 | 0.498
NCI-H1793 | 0.296
NCI-H1944 | 0.161
ABC-1 | 0.47
NCI-H358 | 0.118
NCI-H727 | 0.267

Same assay, conditions: first compound 0.6325 µM

Cell Line | relative viability
NCI-H522 | 0.96
NCI-H1623 | 0.505
PC-14 | 0.217
NCI-H1666 | 0.729
NCI-H1755 | 0.476
NCI-H2023 | 0.448
EPLC-272H | 0.174
LCLC-97TM1 | 0.272
PC-3 [JPC-3] | 0.841
LOU-NH91 | 0.534
NCI-H647 | 0.154
NCI-H23 | 0.397
EMC-BAC-2 | 0.391
NCI-H2126 | 0.515
NCI-H1734 | 0.549
NCI-H650 | 0.534
LK-2 | 0.389

Cell Line | relative viability
NCI-H2228 | 0.39
NCI-H2342 | 0.293
SK-MES-1 | 0.226
HARA | 0.271
COR-L23 | 0.47
COR-L 105 | 0.22
LC-2-ad | 0.559
LXF-289 | 0.311
ChaGo-K-1 | 0.592
NCI-H2170 | 0.412
NCI-H322M | 0.263
HCC-78 | 0.364
SW 900 | 0.572
NCI-H1792 | 0.597
NCI-H1395 | 0.445
NCI-H1563 | 0.528
